From patent publication US20250332151A1, “METHODS OF TREATMENT FOR CYSTIC FIBROSIS” (Vertex Pharmaceuticals Incorporated, priority 2022, published 2025) come the findings set out here.

Series [1] can be described thus: First-in-human (FIH) clinical study of safety, tolerability and PK in healthy subjects. Type of series: in vivo. As to conditions: single doses 3 mg to 1500 mg (Part A), total daily doses 10 mg to 300 mg for ten days (Part B), Part C, suspension, all cohorts. Here is the method:
In a first-in-human (FIH) clinical study of Compound I, the safety, tolerability, and pharmacokinetics (PK) of Compound I in healthy subjects was evaluated. Assessments of the relative bioavailability (BA) of Suspension 2 of Compound I compared to Suspension 1 of Compound I, food effect, and drug drug interactions (DDIs) between Compound I and itraconazole and midazolam were conducted.
This first-in-human (FIH) study of Compound I included three parts (Parts A, B, and C).
Approximately 154 healthy adult subjects were planned to be enrolled in planned cohorts. Approximately 76 subjects were planned to be enrolled in Part A (excluding optional Part A Cohorts), approximately 48 subjects in Part B (excluding optional Part B Cohorts), and approximately 30 subjects in Part C. There was no pre-specified ratio of males to females, but reasonable effort was made to enroll females of non-childbearing potential in all dosing cohorts.
Six dose escalation cohorts were planned for Part A, and five dose escalation cohorts were planned for Part B. Additional cohorts (A7 and A8) in Part A were enrolled based on data from previous cohorts. […]
Food effect was evaluated in an open label, single sequence Cohort A9 to evaluate the effect of food on the PK of Compound I based on emerging PK data during dose escalation. […]

For series [2], the target named is T1, CFTR in F508del/MF-HBE cells (Homo sapiens, UniProt P13569, DEL508-508).
T1 construct: human bronchial epithelial (HBE) cells derived from CF subjects; endogenous in cells; host or cells: primary human bronchial epithelial cells from CF subjects (F508del/MF-HBE)
As to the kind of experiment: Ussing chamber assay of CFTR-mediated short-circuit currents (potentiator activity). As to conditions: 18-24 hours at 37° C. with 10 μM Compound VII, 20% human serum, CFTR-mediated ISC. Type of series: cell-based. How it is done: Ussing chamber experiments were performed using human bronchial epithelial (HBE) cells derived from CF subjects heterozygous for F508del and a minimal function CFTR mutation (F508del/MF-HBE) and cultured as previously described (Neuberger T, Burton B, Clark H, Van Goor F Methods Mol Biol 2011:741:39-54). After four days the apical media was removed, and the cells were grown at an air liquid interface for >14 days prior to use.
To isolate the CFTR-mediated short-circuit (ISC) current, F508del/MF-HBE grown on Costar® Snapwell™ cell culture inserts were mounted in an Ussing chamber and the transepithelial ISC was measured under voltage-clamp recording conditions (Vhold=0 mV) at 37° C. The basolateral solution contained (in mM) 145 NaCl, 0.83 K2HPO4, 3.3 KH2PO4, 1.2 MgCl2, 1.2 CaCl2), 10 Glucose, 10 HEPES (pH adjusted to 7.4 with NaOH) and the apical solution contained (in mM) 145 NaGluconate, 1.2 MgCl2, 1.2 CaCl2), 10 glucose, 10 HEPES (pH adjusted to 7.4 with NaOH) and 30 μM amiloride to block the epithelial sodium channel. […] The CFTR-mediated ISC (uA/cm2) for each condition was determined from the peak forskolin response to the steady-state current following inhibition.
The activity of the CFTR potentiator compounds on the CFTR-mediated ISC was determined in Ussing chamber studies as described above. […]

Each structure is given as a SMILES string.

T1 sequence (P13569 with tags, fused parts or gaps DEL508-508): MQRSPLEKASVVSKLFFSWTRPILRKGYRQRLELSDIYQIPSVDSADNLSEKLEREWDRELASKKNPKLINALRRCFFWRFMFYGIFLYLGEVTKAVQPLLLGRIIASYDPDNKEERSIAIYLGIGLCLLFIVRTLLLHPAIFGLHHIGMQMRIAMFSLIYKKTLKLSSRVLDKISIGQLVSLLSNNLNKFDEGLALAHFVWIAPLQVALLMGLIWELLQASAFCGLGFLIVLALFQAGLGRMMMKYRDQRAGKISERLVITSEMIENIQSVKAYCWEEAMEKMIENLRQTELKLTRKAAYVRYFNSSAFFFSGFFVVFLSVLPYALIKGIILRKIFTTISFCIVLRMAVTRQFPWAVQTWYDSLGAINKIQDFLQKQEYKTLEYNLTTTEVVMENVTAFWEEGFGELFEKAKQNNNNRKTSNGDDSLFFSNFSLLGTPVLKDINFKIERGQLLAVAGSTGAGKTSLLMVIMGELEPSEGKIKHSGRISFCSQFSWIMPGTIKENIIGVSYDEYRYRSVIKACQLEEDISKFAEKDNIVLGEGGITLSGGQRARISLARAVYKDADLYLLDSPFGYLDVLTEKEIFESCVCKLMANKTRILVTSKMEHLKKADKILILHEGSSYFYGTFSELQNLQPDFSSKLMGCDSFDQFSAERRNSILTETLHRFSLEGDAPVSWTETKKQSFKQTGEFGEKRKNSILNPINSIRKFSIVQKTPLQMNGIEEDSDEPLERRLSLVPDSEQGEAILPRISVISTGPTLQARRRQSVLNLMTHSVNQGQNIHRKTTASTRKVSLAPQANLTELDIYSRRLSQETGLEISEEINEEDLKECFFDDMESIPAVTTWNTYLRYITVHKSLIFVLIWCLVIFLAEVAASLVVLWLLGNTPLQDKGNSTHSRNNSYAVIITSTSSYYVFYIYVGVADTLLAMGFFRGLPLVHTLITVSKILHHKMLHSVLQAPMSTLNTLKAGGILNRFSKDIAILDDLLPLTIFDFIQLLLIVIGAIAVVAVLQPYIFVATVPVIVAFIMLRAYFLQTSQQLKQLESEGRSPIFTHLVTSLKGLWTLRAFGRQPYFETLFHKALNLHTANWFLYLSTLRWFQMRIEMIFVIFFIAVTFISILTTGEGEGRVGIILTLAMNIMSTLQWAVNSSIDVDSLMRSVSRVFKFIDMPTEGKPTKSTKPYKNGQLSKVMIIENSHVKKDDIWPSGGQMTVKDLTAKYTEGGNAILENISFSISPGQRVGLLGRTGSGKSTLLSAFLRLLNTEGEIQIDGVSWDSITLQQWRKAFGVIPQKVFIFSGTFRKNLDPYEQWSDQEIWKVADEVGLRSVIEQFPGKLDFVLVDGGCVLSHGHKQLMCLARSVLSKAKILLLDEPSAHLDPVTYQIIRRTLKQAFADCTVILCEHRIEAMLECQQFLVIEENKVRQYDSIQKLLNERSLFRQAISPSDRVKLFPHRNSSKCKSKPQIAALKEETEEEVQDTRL

Regarding `CC1(C)CCCCC[C@](O)(C(F)(F)F)C2=NN=C(O2)c2nc(c(C(F)(F)F)cc2N)N1` [Compound I, (6R)-17-amino-12,12-dimethyl-6,15-bis(trifluoromethyl)-19-oxa-3,4,13,18-tetrazatricyclo[12.3.1.12,5]nonadeca-1 (18),2,4,14,16-pentaen-6-ol], the safety and tolerability entry in series [1] was “generally safe and well-tolerated”. Further, the EC50 in series [2] is below 500 nM.

Broadly, the EC50 is the concentration at which the effect is half-maximal.
